Laboratory results published in ChEMBL document CHEMBL1201862, “PubChem BioAssay data set” (2004).
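Five compound concentrations were applied to cells in 96-well plates for 48 hours; endpoints were derived by simple linear interpolation of the resulting dose-response curve. GI50: concentration for 50% inhibition of growth.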 Active and inactive are the calls of the source. No stated cut-off is given here; in the data, active = GI50 up to about 1.1 µM and inactive = higher.

Key:
Assay in all cases: DTP human tumour cell line panel, 48 h
MDA-MB-231 = system: MDA-MB-231
T47D = system: T47D
DU-145 = system: DU-145
SW-620 = system: SW-620
MCF7 = system: MCF7
LOX IMVI = system: LOX IMVI
SN12C = system: SN12C
Hs-578T = system: Hs-578T
HL-60 = system: HL-60
UO-31 = system: UO-31
UACC-62 = system: UACC-62
A549 = system: A549
SK-MEL-2 = system: SK-MEL-2
SF-539 = system: SF-539
SF-268 = system: SF-268
EKVX = system: EKVX
SR = system: SR
MOLT-4 = system: MOLT-4
RPMI-8226 = system: RPMI-8226
KM12 = system: KM12

| SMILES | GI50 (MDA-MB-231) | GI50 (T47D) | GI50 (DU-145) | GI50 (SW-620) | GI50 (MCF7) | GI50 (LOX IMVI) | GI50 (SN12C) | GI50 (Hs-578T) | GI50 (HL-60) | GI50 (UO-31) | GI50 (UACC-62) | GI50 (A549) | GI50 (SK-MEL-2) | GI50 (SF-539) | GI50 (SF-268) | GI50 (EKVX) | GI50 (SR) | GI50 (MOLT-4) | GI50 (RPMI-8226) | GI50 (KM12) |
| --- | --- | --- | --- | --- | --- | --- | --- | --- | --- | --- | --- | --- | --- | --- | --- | --- | --- | --- | --- | --- |
| COc1cccc2c(=O)oc(-c3ccccc3C)nc12 | 63.7 µM (inactive) | > 100 µM (inactive) | 61 µM (inactive) | 40.6 µM (inactive) | 33.7 µM (inactive) | 18.3 µM (inactive) | 26.5 µM (inactive) | 43.5 µM (inactive) | 32 µM (inactive) | 58.3 µM (inactive) | 62.1 µM (inactive) | 38.2 µM (inactive) | 26.6 µM (inactive) | 25.5 µM (inactive) | 43.3 µM (inactive) | > 100 µM (inactive) | 49.4 µM (inactive) | 26.7 µM (inactive) | 38.2 µM (inactive) | 38 µM (inactive) |
| [O-][n+]1c2ccccc2[n+]([O-])c2cc(Br)ccc21 | 24.4 µM (inactive) | 10.2 µM (inactive) | 24.7 µM (inactive) | 20.6 µM (inactive) | 11.3 µM (inactive) | 2.99 µM (inactive) | 21.5 µM (inactive) | 35.2 µM (inactive) | 1.31 µM (inactive) | 9.48 µM (inactive) | 18.3 µM (inactive) | 10.8 µM (inactive) | 29 µM (inactive) | 13.9 µM (inactive) | 13.7 µM (inactive) | 16.7 µM (inactive) | 2.02 µM (inactive) | 0.144 µM (active) | 8.05 µM (inactive) | 12.6 µM (inactive) |
| C/C=C(\C)CC/C=C/CO[Si](C)(C)C(C)(C)C | > 100 µM (inactive) | > 100 µM (inactive) | > 100 µM (inactive) | > 100 µM (inactive) | 40.1 µM (inactive) | 22.3 µM (inactive) | > 100 µM (inactive) | > 100 µM (inactive) | 32.6 µM (inactive) | > 100 µM (inactive) | > 100 µM (inactive) | 39.4 µM (inactive) | 35.4 µM (inactive) | > 100 µM (inactive) | > 100 µM (inactive) | > 100 µM (inactive) | 28.9 µM (inactive) | 39 µM (inactive) | > 100 µM (inactive) | > 100 µM (inactive) |
